Legend:
[1] = tested on: Chronic constriction injury (CCI) in mice; details: p.o., twice per day for three weeks, cited from earlier work
pain = assay: 7 volunteer pain relief study; format: in vivo, human; details: for Relief: single agent: Curcumin 30 mg or Hemp CBD 20 mg, formulations contain magnesium
Description: All of the above formulations contain magnesium. Patients received the combination of CBD and curcumin in the following formulation comprising: (a) hemp derived terpiniods and oil; (b) turmeric as curcumin and; (c) magnesium.

[2] = chronic, but not acute, treatment 5, 15 or 45 mg/kg

## COc1cc(/C=C/C(=O)CC(=O)/C=C/c2ccc(O)c(OC)c2)ccc1O [Curcumin, curcumin]
[1]; chronic treatment 5, 15 or 45 mg/kg
  spinal monoamine (or metabolite) contents: increasing
[1]; [2]
  mechanical allodynia (von Frey hair): alleviated
  thermal hyperalgesia (hot plate test): alleviated
pain; Subject 1, (California), joint pain
  Relief: Partial relief
pain; Subject 2, (California), migraine
  Relief: Partial relief
pain; Subject 4, (Colorado), back pain
  Relief: Partial relief
pain; Subject 5, (California), back pain
  Relief: Partial relief
pain; summary of the 7 volunteer study, patients taking the agents singly
  pain relief: partial pain relief
